Results published in patent publication US12577556B2, “Perturbation beads for use in assays” (Zafrens Inc., priority 2022, dated 2026).

Test system: Jurkat cells engineered to have enhanced green fluorescent protein (eGFP) reporter fused to nuclear factor of activated T cells (NFAT) transcription factor
Experiment: NFAT-eGFP reporter assay in Jurkat cells with compounds photoreleased from labeled perturbation beads
Assay type: cell-based
Details: compounds released from beads by 10 seconds of 365 nm light, 60 mW/cm^2
Procedure: Individual beads were added to wells of a multiwell assay device. Jurkat cells engineered to have enhanced green fluorescent protein (eGFP) reporter fused to nuclear factor of activated T cells (NFAT) transcription factor were added to each well (cells purchased from BPS Bioscience, Catalog #78384). The compounds were released from the beads by exposure to 10 seconds of 365 nm wavelength light having illumination power of 60 mW/cm^2 and allowed to interact with the cells in the respective wells. […] This exemplifies using optically detectible labels on the bead to code for perturbation compounds and/or building blocks and corresponding that visible code to a cell perturbation.

Structure (SMILES) | change in NFAT-eGFP expression levels
COc1cc2c(cc1Nc1ncc(C(=O)O)c(Nc3c(F)cccc3C(F)(F)F)n1)CN(C)CC2 [HPK, 4-{[2-Fluoro-6-(trifluoromethyl)phenyl]amino}-2-[(6-methoxy-2-methyl-1,2,3,4-tetrahydro-7-isoquinolinyl)amino]-5-pyrimidine-5-carboxylic acid] | minimal change
Cc1sc2c(c1C)C(c1ccc(Cl)cc1)=NC([C@@H](C(=O)O)C(C)(C)C)c1nnc(C)n1-2 (stereo partly drawn) [JQ1, ((S)-tert-butyl 2-(4-(4-chlorophenyl)-2,3,9-trimethyl-6H-thieno[3,2-f] [1,2,4]triazolo[4,3-a] [1,4]diazepin-6-yl)acetic acid)] | minimal change
O=C1CCC(N2Cc3cc(C(=O)O)ccc3C2=O)C(=O)N1 (stereo not drawn) [LNI, 2-(2,6-dioxopiperidin-3-yl)-1-oxoisoindoline-5-carboxylic acid] | minimal change
